Test results published in patent publication US20200390100A1, “SUBSTITUTED N-HETEROCYCLYL- AND N-HETEROARYL-TETRAHYDROPYRIMIDINONES AND THE SALTS THEREOF, AND THE USE OF SAME AS HERBICIDAL ACTIVE SUBSTANCES” (Bayer Aktiengesellschaft, priority 2017, published 2020).

Assays:
Assay type in all cases: in vivo
[1] = system: Poa annua; test: Herbicidal pre-emergence action (Part 2), 1280 g/ha; conditions: application rate 1280 g/ha, scored visually after about 3 weeks, Table D3
Source text: (§1) Seeds of mono- and dicotyledonous weed plants were placed in plastic pots in sandy loam soil (doubly sown with in each case one species of mono- or dicotyledonous weed plants per pot) and covered with soil. The compounds of the invention, formulated in the form of wettable powders (WP) or as emulsion concentrates (EC), were then applied onto the surface of the covering soil as aqueous suspension or emulsion with addition of 0.5% additive at a water application rate of 600 liters per hectare (converted). After the treatment, the pots were placed in a greenhouse and kept under good growth conditions for the test plants. After about 3 weeks, the effect of the preparations was scored visually in comparison with untreated controls as percentages. For example, 100% activity=the plants have died, 0% activity=like control plants. Tables D1 to D8 below show the effects of selected compounds of the general formula (I) according to Tables 1.1 to 1.150 on various harmful plants and at an application rate corresponding to 1280 g/ha, which were obtained by the experimental procedure mentioned above.

[2] = system: Matricaria inodora; test: as above; conditions: application rate 1280 g/ha, scored visually after about 3 weeks, Table D7
Source text: as §1

[3] = system: Amaranthus retroflexus; test: as above; conditions: application rate 1280 g/ha, scored visually after about 3 weeks, Table D6
Source text: as §1

[4] = system: Stellaria media; test: as above; conditions: application rate 1280 g/ha, scored visually after about 3 weeks, Table D8
Source text: as §1

[5] = system: Poa annua; test: Herbicidal post-emergence action (Part 2), 1280 g/ha; conditions: application rate 1280 g/ha, rated visually after about 3 weeks, Table C2
Protocol: (§2) Seeds of mono- and dicotyledonous weed plants were placed in plastic pots in sandy loam soil (doubly sown with in each case one species of mono- or dicotyledonous weed plants per pot), covered with soil and cultivated in a greenhouse under controlled growth conditions. 2 to 3 weeks after sowing, the test plants were treated at the one-leaf stage. The compounds of the invention, formulated in the form of wettable powders (WP) or as emulsion concentrates (EC), were applied onto the green parts of the plants as aqueous suspension or emulsion with addition of 0.5% additive at a water application rate of 600 liters per hectare (converted). After the test plants had been kept in the greenhouse under optimum growth conditions for about 3 weeks, the activity of the preparations was rated visually in comparison to untreated controls. For example, 100% activity=the plants have died, 0% activity=like control plants. Tables C1 to C7 below show the effects of selected compounds of the general formula (I) according to Tables 1.1 to 1.150 on various harmful plants and at an application rate corresponding to 1280 g/ha, which were obtained by the experimental procedure mentioned above.

[6] = system: Amaranthus retroflexus; test: as above; conditions: application rate 1280 g/ha, rated visually after about 3 weeks, Table C5
Protocol: as §2

[7] = system: Abutilon theophrasti; test: Herbicidal pre-emergence action (Part 2), 1280 g/ha; conditions: application rate 1280 g/ha, scored visually after about 3 weeks, Table D5
Source text: as §1

[8] = system: Setaria viridis; test: as above; conditions: application rate 1280 g/ha, scored visually after about 3 weeks, Table D4
Source text: as §1

[9] = system: Echinochloa crus-galli; test: as above; conditions: application rate 1280 g/ha, scored visually after about 3 weeks, Table D1
Source text: as §1

[10] = system: Matricaria inodora; test: Herbicidal post-emergence action (Part 2), 1280 g/ha; conditions: application rate 1280 g/ha, rated visually after about 3 weeks, Table C6
Protocol: as §2

[11] = system: Stellaria media; test: as above; conditions: application rate 1280 g/ha, rated visually after about 3 weeks, Table C7
Protocol: as §2

[12] = system: Polygonum convolvulus; test: Pre-emergence herbicidal action, greenhouse, 320 g/ha; conditions: application rate 320 g/ha, scored visually after about 3 weeks vs untreated controls
Source text: (§3) Seeds of monocotyledonous and dicotyledonous weed plants and crop plants were placed in plastic or organic planting pots and covered with soil. The compounds of the invention, formulated in the form of wettable powders (WP) or as emulsion concentrates (EC), were then applied to the surface of the covering soil as aqueous suspension or emulsion with addition of 0.5% additive at a water application rate equivalent to […]. After the treatment, the pots were placed in a greenhouse and kept under good growth conditions for the test plants. After about 3 weeks, the effect of the preparations is scored visually in comparison with untreated controls as percentages. For example, 100% activity=the plants have died, 0% activity=like control plants. Tables B1 to B14 below show the effects of selected compounds of the general formula (I) according to Tables I.1 to I.150 on various harmful plants and at an application rate corresponding to 320 g/ha, which were obtained by the experimental procedure mentioned above.

[13] = system: Abutilon theophrasti; test: as above; conditions: application rate 320 g/ha, scored visually after about 3 weeks vs untreated controls
Source text: as §3

[14] = system: Alopecurus myosuroides; test: as above; conditions: application rate 320 g/ha, scored visually after about 3 weeks vs untreated controls
Source text: as §3

[15] = system: Matricaria inodora; test: as above; conditions: application rate 320 g/ha, scored visually after about 3 weeks vs untreated controls
Source text: as §3

[16] = system: Digitaria sanguinalis; test: as above; conditions: application rate 320 g/ha, Table B9
Source text: as §3

[17] = system: Veronica persica; test: as above; conditions: application rate 320 g/ha, Table B13
Source text: as §3

[18] = system: Viola tricolor; test: as above; conditions: application rate 320 g/ha, Table B8
Source text: as §3

[19] = system: Setaria viridis; test: as above; conditions: application rate 320 g/ha, Table B11
Source text: as §3

[20] = system: Amaranthus retroflexus; test: as above; conditions: application rate 320 g/ha, scored visually after about 3 weeks vs untreated controls
Source text: as §3

[21] = system: Avena fatua; test: as above; conditions: application rate 320 g/ha, scored visually after about 3 weeks vs untreated controls
Source text: as §3

[22] = system: Stellaria media; test: as above; conditions: application rate 320 g/ha, scored visually after about 3 weeks vs untreated controls
Source text: as §3

[23] = system: Pharbitis purpurea; test: as above; conditions: application rate 320 g/ha, Table B12
Source text: as §3

[24] = system: Viola tricolor; test: Post-emergence herbicidal action, greenhouse, 320 g/ha; conditions: application rate 320 g/ha, rated visually after about 3 weeks vs untreated controls
Protocol: (§4) Seeds of monocotyledonous and dicotyledonous weeds and crop plants were placed in sandy loam in plastic or wood-fiber pots, covered with soil and cultivated in a greenhouse under controlled growth conditions. 2 to 3 weeks after sowing, the test plants were treated at the one-leaf stage. The compounds of the invention, formulated in the form of wettable powders (WP) or as emulsion concentrates (EC), were then sprayed onto the green parts of the plants as aqueous suspension or emulsion with addition of 0.5% additive at a water application rate of […] (converted). After the test plants had been kept in the greenhouse under optimum growth conditions for about 3 weeks, the activity of the preparations was rated visually in comparison to untreated controls. For example, 100% activity=the plants have died, 0% activity=like control plants. Tables A1 to A14 below show the effects of selected compounds of the general formula (I) according to Tables 1.1 to 1.150 on various harmful plants and at an application rate corresponding to 320 g/ha, which were obtained by the experimental procedure mentioned above.

[25] = system: Amaranthus retroflexus; test: as above; conditions: application rate 320 g/ha, rated visually after about 3 weeks vs untreated controls
Protocol: as §4

[26] = system: Stellaria media; test: as above; conditions: application rate 320 g/ha, rated visually after about 3 weeks vs untreated controls
Protocol: as §4

[27] = system: Setaria viridis; test: as above; conditions: application rate 320 g/ha, rated visually after about 3 weeks vs untreated controls
Protocol: as §4

SMILES | Poa Annua [1] [%] | Matricaria inodora [2] [%] | Amaranthus retroflexus [3] [%] | Poa Annua [5] [%] | Amaranthus retroflexus [6] [%] | Polygonum convolvulus (efficacy in %) [12] [%] | Abutilon theophrasti (efficacy in %) [13] [%] | Alopecurus myosuroides (efficacy in %) [14] [%] | Matricaria inodora (efficacy in %) [15] [%] | Digitaria sanguinalis (efficacy in %) [16] [%] | Veronica persica (efficacy in %) [17] [%] | Viola tricolor (efficacy in %) [18] [%] | Setaria viridis (efficacy in %) [19] [%] | Amaranthus retroflexus (efficacy in %) [20] [%] | Stellaria media (efficacy in %) [22] [%] | Pharbitis purpurea (efficacy in %) [23] [%] | Amaranthus retroflexus (efficacy in %) [25] [%] | also measured
CC(=O)OC1N(c2cc(C(C)(C)C)on2)C(=O)N(C)CC12CCC2 (stereo not shown) [I.82-162] | 100 | 100 | 100 | 90 | 100 |  |  |  |  |  |  |  |  |  |  |  |  | Stellaria media [4]: 90%
CC(=O)OC1CCN(C)C(=O)N1c1cc(C(C)(C)C)no1 (stereo not shown) [I.2-290, 3-(3-tert-Butyl-1,2-oxazol-5-yl)-1-methyl-2-oxohexahydropyrimidin-4-yl Acetate] | 100 | 100 | 100 | 90 | 100 |  |  |  |  |  |  |  |  |  |  |  |  | Abutilon theophrasti [7]: 100%; Setaria viridis [8]: 90%; Echinochloa crus-galli [9]: 90%; Stellaria media [4]: 100%; Matricaria inodora [10]: 90%; Stellaria media [11]: 100%
CN1CCC(O)N(c2cc(C(F)(F)F)c(Br)cn2)C1=O (stereo not shown) [I.1-464] |  |  |  |  |  | 100 | 100 | 80 | 100 | 100 | 100 | 100 | 100 | 100 | 100 | 100 | 100 | Avena fatua (efficacy in %) [21]: 80%; Viola tricolor (efficacy in %) [24]: 100%; Stellaria media (efficacy in %) [26]: 90%
CC(=O)OC1CCN(C)C(=O)N1C1=NOC(C)(C)C1 (stereo not shown) [I.2-709] |  |  |  |  |  | 100 | 80 | 90 | 100 | 90 | 100 | 100 |  |  | 100 | 100 |  | 
CCCC(=O)OC1N(c2cc(C(C)(C)C)on2)C(=O)N(C)CC1(C)C (stereo not shown) [I.66-162] | 100 | 100 | 90 | 90 | 100 |  |  |  |  |  |  |  |  |  |  |  |  | Abutilon theophrasti [7]: 100%; Echinochloa crus-galli [9]: 90%
CN1CCC(O)N(c2cc(C(F)(F)F)ncn2)C1=O (stereo not shown) [I.1-506] |  |  |  |  |  | 100 | 80 | 90 | 100 | 100 | 80 | 100 | 100 | 90 | 100 | 100 | 100 | Avena fatua (efficacy in %) [21]: 80%; Setaria viridis (efficacy in %) [27]: 100%
CN1CCC(O)N(c2cc(C(F)(F)F)c(Cl)cn2)C1=O (stereo not shown) [I.1-451] |  |  |  |  |  | 90 |  |  | 100 | 90 |  | 100 | 90 | 90 | 100 |  | 100 | Viola tricolor (efficacy in %) [24]: 100%; Setaria viridis (efficacy in %) [27]: 80%; Stellaria media (efficacy in %) [26]: 100%
